Source: patent EP1171107B1, “USE OF A PHARMACEUTICAL COMPOSITION IN THE MANUFACTURE OF A MEDICAMENT FOR THE TREATMENT OF PATHOLOGICAL CONDITIONS OF THE EYE CAUSED BY BACTERIA, VIRUSES, FUNGI, YEASTS AND PROTOZOA” (Dr. GERHARD MANN chem.-pharm. Fabrik GmbH, priority 1999, dated 2000)

What was measured:
Format in all cases: cell-based
E.coli [1] = experiment: Quantitative germ count (re-isolation, surface method) after inoculating the test preparation; settings: Ausgangskeimzahl 2,7 x 10^5 KBE/ml
H.influenzae [2] = experiment: as above; settings: Ausgangskeimzahl 2,8 x 10^5 KBE/ml
Summary of the method: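 Surviving germs were counted by the surface method: an aliquot was spiral-plated on Kochblut-Agar and incubated at 33±2°C for max. 4 Tage, giving re-isolated counts in KBE/ml with a detection limit of 100 KBE/ml. Initial germ counts were also set by spiral-plater surface plating. The H. influenzae strain was pretested biochemically for identity and purity.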

Sc. pneumoniae [3] = experiment: as above; settings: Ausgangskeimzahl 3,7 x 10^5 KBE/ml
Summary of the method: (§1)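 Test preparations were contaminated with ca. 10^5 CFU/ml of each strain, then sampled at 2, 6, 8, 24, 32, 48 and 72 h. Cells were centrifuged 10 min at 3000 rpm, washed in NaCl-peptone buffer, resuspended and spiral-plated on Caso agar at 33±2°C for max. 4 days. Detection limit was 100 CFU/ml.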

P.aeruginosa [4] = experiment: as above; settings: Ausgangskeimzahl 2,7 x 10^5 KBE/ml
Summary of the method: as §1

S.epidermidis [5] = experiment: as above; settings: Ausgangskeimzahl 2,1 x 10^5 KBE/ml
Summary of the method: as §1

E.coli [6] = experiment: Qualitative examination: enrichment of the inoculated test preparation in broth
Summary of the method: (§2)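 Growth/no growth after broth enrichment read out; negative enrichment taken as elimination of inoculum. Inoculum ca. 10^5 CFU/ml in 5 ml test substance, contact 2–72 h, then centrifugation wash in NaCl-peptone buffer, 2 ml into 20 ml Caso broth or Fildes medium, ≤4 d, 33±2°C.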

S.aureus = experiment: as above
Summary of the method: as §2

S.epidermidis [7] = experiment: as above
Summary of the method: as §2

Sc. pneumoniae [8] = experiment: as above
Summary of the method: as §2

H.influenzae [9] = experiment: as above
Summary of the method: as §2

P.aeruginosa [10] = experiment: as above
Summary of the method: as §2

Benzalkoniumchlorid [Benzalkoniumchlorid 0,001 Gew.-%]
Ergebnis der Reisolierung (in KBE/ml) (E.coli [1]; 2 h after inoculation): <100 KBE/ml | Ergebnis der Reisolierung (in KBE/ml) (E.coli [1]; 4 h after inoculation): <100 KBE/ml | Ergebnis der Reisolierung (in KBE/ml) (E.coli [1]; 6 h after inoculation): <100 KBE/ml | Ergebnis der Reisolierung (in KBE/ml) (E.coli [1]; 8 h after inoculation): <100 KBE/ml | Ergebnis der Reisolierung (in KBE/ml) (E.coli [1]; 24 h after inoculation): <100 KBE/ml | Ergebnis der Reisolierung (in KBE/ml) (E.coli [1]; 32 h after inoculation): <100 KBE/ml | Ergebnis der Reisolierung (in KBE/ml) (E.coli [1]; 48 h after inoculation): <100 KBE/ml | Ergebnis der Reisolierung (in KBE/ml) (E.coli [1]; 72 h after inoculation): <100 KBE/ml | Ergebnis der Reisolierung (in KBE/ml) (H.influenzae [2]; 2 h after inoculation): <100 KBE/ml | Ergebnis der Reisolierung (in KBE/ml) (H.influenzae [2]; 4 h after inoculation): <100 KBE/ml | Ergebnis der Reisolierung (in KBE/ml) (H.influenzae [2]; 6 h after inoculation): <100 KBE/ml | Ergebnis der Reisolierung (in KBE/ml) (H.influenzae [2]; 8 h after inoculation): <100 KBE/ml | Ergebnis der Reisolierung (in KBE/ml) (H.influenzae [2]; 24 h after inoculation): <100 KBE/ml | Ergebnis der Reisolierung (in KBE/ml) (H.influenzae [2]; 32 h after inoculation): <100 KBE/ml | Ergebnis der Reisolierung (in KBE/ml) (H.influenzae [2]; 48 h after inoculation): <100 KBE/ml | Ergebnis der Reisolierung (in KBE/ml) (H.influenzae [2]; 72 h after inoculation): <100 KBE/ml | Ergebnis der Reisolierung (in KBE/ml) (Sc. pneumoniae [3]; 2 h after inoculation): <100 KBE/ml | Ergebnis der Reisolierung (in KBE/ml) (Sc. pneumoniae [3]; 4 h after inoculation): <100 KBE/ml | Ergebnis der Reisolierung (in KBE/ml) (Sc. pneumoniae [3]; 6 h after inoculation): <100 KBE/ml | Ergebnis der Reisolierung (in KBE/ml) (Sc. pneumoniae [3]; 8 h after inoculation): <100 KBE/ml | Ergebnis der Reisolierung (in KBE/ml) (Sc. pneumoniae [3]; 24 h after inoculation): <100 KBE/ml | Ergebnis der Reisolierung (in KBE/ml) (Sc. pneumoniae [3]; 32 h after inoculation): <100 KBE/ml | Ergebnis der Reisolierung (in KBE/ml) (Sc. pneumoniae [3]; 48 h after inoculation): <100 KBE/ml | Ergebnis der Reisolierung (in KBE/ml) (Sc. pneumoniae [3]; 72 h after inoculation): <100 KBE/ml | Ergebnis der Reisolierung (in KBE/ml) (P.aeruginosa [4]; 2 h after inoculation): <100 KBE/ml | Ergebnis der Reisolierung (in KBE/ml) (P.aeruginosa [4]; 4 h after inoculation): <100 KBE/ml | Ergebnis der Reisolierung (in KBE/ml) (P.aeruginosa [4]; 6 h after inoculation): <100 KBE/ml | Ergebnis der Reisolierung (in KBE/ml) (P.aeruginosa [4]; 8 h after inoculation): <100 KBE/ml | Ergebnis der Reisolierung (in KBE/ml) (P.aeruginosa [4]; 24 h after inoculation): <100 KBE/ml | Ergebnis der Reisolierung (in KBE/ml) (P.aeruginosa [4]; 32 h after inoculation): <100 KBE/ml | Ergebnis der Reisolierung (in KBE/ml) (P.aeruginosa [4]; 48 h after inoculation): <100 KBE/ml | Ergebnis der Reisolierung (in KBE/ml) (P.aeruginosa [4]; 72 h after inoculation): <100 KBE/ml | Ergebnis der Reisolierung (in KBE/ml) (S.epidermidis [5]; 2 h after inoculation): <100 KBE/ml | Ergebnis der Reisolierung (in KBE/ml) (S.epidermidis [5]; 4 h after inoculation): <100 KBE/ml | Ergebnis der Reisolierung (in KBE/ml) (S.epidermidis [5]; 6 h after inoculation): <100 KBE/ml | Ergebnis der Reisolierung (in KBE/ml) (S.epidermidis [5]; 8 h after inoculation): <100 KBE/ml | Ergebnis der Reisolierung (in KBE/ml) (S.epidermidis [5]; 24 h after inoculation): <100 KBE/ml | Ergebnis der Reisolierung (in KBE/ml) (S.epidermidis [5]; 32 h after inoculation): <100 KBE/ml | Ergebnis der Reisolierung (in KBE/ml) (S.epidermidis [5]; 48 h after inoculation): <100 KBE/ml | Ergebnis der Reisolierung (in KBE/ml) (S.epidermidis [5]; 72 h after inoculation): <100 KBE/ml | Ergebnis der Reisolierung qualitiativ (+/-) nach Anreicherung (E.coli [6]; 2 h after inoculation): - | Ergebnis der Reisolierung qualitiativ (+/-) nach Anreicherung (E.coli [6]; 4 h after inoculation): - | Ergebnis der Reisolierung qualitiativ (+/-) nach Anreicherung (E.coli [6]; 6 h after inoculation): - | Ergebnis der Reisolierung qualitiativ (+/-) nach Anreicherung (E.coli [6]; 8 h after inoculation): - | Ergebnis der Reisolierung qualitiativ (+/-) nach Anreicherung (E.coli [6]; 24 h after inoculation): - | Ergebnis der Reisolierung qualitiativ (+/-) nach Anreicherung (E.coli [6]; 32 h after inoculation): - | Ergebnis der Reisolierung qualitiativ (+/-) nach Anreicherung (E.coli [6]; 48 h after inoculation): - | Ergebnis der Reisolierung qualitiativ (+/-) nach Anreicherung (E.coli [6]; 72 h after inoculation): - | Ergebnis der Reisolierung qualitiativ (+/-) nach Anreicherung (S.aureus; 2 h after inoculation): - | Ergebnis der Reisolierung qualitiativ (+/-) nach Anreicherung (S.aureus; 4 h after inoculation): - | Ergebnis der Reisolierung qualitiativ (+/-) nach Anreicherung (S.aureus; 6 h after inoculation): - | Ergebnis der Reisolierung qualitiativ (+/-) nach Anreicherung (S.aureus; 8 h after inoculation): - | Ergebnis der Reisolierung qualitiativ (+/-) nach Anreicherung (S.aureus; 24 h after inoculation): - | Ergebnis der Reisolierung qualitiativ (+/-) nach Anreicherung (S.aureus; 32 h after inoculation): - | Ergebnis der Reisolierung qualitiativ (+/-) nach Anreicherung (S.aureus; 48 h after inoculation): - | Ergebnis der Reisolierung qualitiativ (+/-) nach Anreicherung (S.aureus; 72 h after inoculation): - | Ergebnis der Reisolierung qualitiativ (+/-) nach Anreicherung (S.epidermidis [7]; 2 h after inoculation): - | Ergebnis der Reisolierung qualitiativ (+/-) nach Anreicherung (S.epidermidis [7]; 4 h after inoculation): - | Ergebnis der Reisolierung qualitiativ (+/-) nach Anreicherung (S.epidermidis [7]; 6 h after inoculation): - | Ergebnis der Reisolierung qualitiativ (+/-) nach Anreicherung (S.epidermidis [7]; 8 h after inoculation): - | Ergebnis der Reisolierung qualitiativ (+/-) nach Anreicherung (S.epidermidis [7]; 24 h after inoculation): - | Ergebnis der Reisolierung qualitiativ (+/-) nach Anreicherung (S.epidermidis [7]; 32 h after inoculation): - | Ergebnis der Reisolierung qualitiativ (+/-) nach Anreicherung (S.epidermidis [7]; 48 h after inoculation): - | Ergebnis der Reisolierung qualitiativ (+/-) nach Anreicherung (S.epidermidis [7]; 72 h after inoculation): - | Ergebnis der Reisolierung qualitiativ (+/-) nach Anreicherung (Sc. pneumoniae [8]; 2 h after inoculation): - | Ergebnis der Reisolierung qualitiativ (+/-) nach Anreicherung (Sc. pneumoniae [8]; 4 h after inoculation): - | Ergebnis der Reisolierung qualitiativ (+/-) nach Anreicherung (Sc. pneumoniae [8]; 6 h after inoculation): - | Ergebnis der Reisolierung qualitiativ (+/-) nach Anreicherung (Sc. pneumoniae [8]; 8 h after inoculation): - | Ergebnis der Reisolierung qualitiativ (+/-) nach Anreicherung (Sc. pneumoniae [8]; 24 h after inoculation): - | Ergebnis der Reisolierung qualitiativ (+/-) nach Anreicherung (Sc. pneumoniae [8]; 32 h after inoculation): - | Ergebnis der Reisolierung qualitiativ (+/-) nach Anreicherung (Sc. pneumoniae [8]; 48 h after inoculation): - | Ergebnis der Reisolierung qualitiativ (+/-) nach Anreicherung (Sc. pneumoniae [8]; 72 h after inoculation): - | Ergebnis der Reisolierung qualitiativ (+/-) nach Anreicherung (H.influenzae [9]; 2 h after inoculation): - | Ergebnis der Reisolierung qualitiativ (+/-) nach Anreicherung (H.influenzae [9]; 4 h after inoculation): - | Ergebnis der Reisolierung qualitiativ (+/-) nach Anreicherung (H.influenzae [9]; 6 h after inoculation): - | Ergebnis der Reisolierung qualitiativ (+/-) nach Anreicherung (H.influenzae [9]; 8 h after inoculation): - | Ergebnis der Reisolierung qualitiativ (+/-) nach Anreicherung (H.influenzae [9]; 24 h after inoculation): - | Ergebnis der Reisolierung qualitiativ (+/-) nach Anreicherung (H.influenzae [9]; 32 h after inoculation): - | Ergebnis der Reisolierung qualitiativ (+/-) nach Anreicherung (H.influenzae [9]; 48 h after inoculation): - | Ergebnis der Reisolierung qualitiativ (+/-) nach Anreicherung (H.influenzae [9]; 72 h after inoculation): - | Ergebnis der Reisolierung qualitiativ (+/-) nach Anreicherung (P.aeruginosa [10]; 2 h after inoculation): - | Ergebnis der Reisolierung qualitiativ (+/-) nach Anreicherung (P.aeruginosa [10]; 4 h after inoculation): - | Ergebnis der Reisolierung qualitiativ (+/-) nach Anreicherung (P.aeruginosa [10]; 6 h after inoculation): - | Ergebnis der Reisolierung qualitiativ (+/-) nach Anreicherung (P.aeruginosa [10]; 8 h after inoculation): - | Ergebnis der Reisolierung qualitiativ (+/-) nach Anreicherung (P.aeruginosa [10]; 24 h after inoculation): - | Ergebnis der Reisolierung qualitiativ (+/-) nach Anreicherung (P.aeruginosa [10]; 32 h after inoculation): - | Ergebnis der Reisolierung qualitiativ (+/-) nach Anreicherung (P.aeruginosa [10]; 48 h after inoculation): - | Ergebnis der Reisolierung qualitiativ (+/-) nach Anreicherung (P.aeruginosa [10]; 72 h after inoculation): -
